Experimental data taken from PMC11477289, “Low-Basicity 5-HT6 Receptor Ligands from the Group of Cyclic Arylguanidine Derivatives and Their Antiproliferative Activity Evaluation” (International Journal of Molecular Sciences, 2024).

Experiments:
[1] = molecular target: T1, CYP3A4 (Homo sapiens, UniProt P08684); assay: CYP3A4 P450-Glo assay (drug–drug interactions); format: biochemical; details: 0.01–25 µM
T1 construct: purchased Promega
Description: (§1) The potential risk of drug–drug interactions (DDIs) was examined in luminescence-based CYP3A4 and CYP2D6 P450-Glo assays (Promega, Madison, WI, USA) (Figure 2A,B).
(§2) The influence on CYP3A4 and CYP2D6 activity by ligands was analyzed with luminescent CYP3A4 P450-Glo and CYP2D6 P450-Glo^TM (Madison, WI, USA). The compounds were tested in triplicate. The bioluminescence signal was measured with a microplate reader, Spark Cyto (Tecan, Männedorf, Switzerland), in the luminescence mode. Compounds were tested in triplicate in the range of 0.01–25 µM for both isoforms’ P450 cytochrome. KE and QD were used as the reference compounds for CYP3A4 and CYP2D6, respectively.

[2] = tested on: HSA and AGP (24:1); assay: Plasma protein binding, TRANSIL XL PPB assay; details: human, TRANSIL XL PPB assay: HSA and AGP in a 24:1 ratio
[3] = molecular target: T2, CYP2D6 (Homo sapiens, UniProt P10635); assay: CYP2D6 P450-Glo assay (drug–drug interactions); format: biochemical; details: 0.01–25 µM
T2 construct: purchased Promega
Description: as §1, §2

[4] = PAMPA permeability test; format: in vitro ADME
Description: This test allows the determination of the compound’s passive diffusion through biological membranes.
Precoated PAMPA Plate System Gentest was obtained from Corning (Tewksbury, MA, USA). Test compounds and caffeine solutions (200 µM) were prepared in a PBS buffer (pH = 7.4) and then added to the PAMPA plate. The plate was incubated at room temperature for 5 h without agitation. Then, 150 µL was aspirated from both acceptor (A) and donor (D) wells and then diluted with a 150 µL internal standard (IS) solution. The concentrations of the tested compounds in wells A and D were estimated using an LC/MS Waters ACQUITY™ TQD system with a TQ detector (Waters, Milford, CT, USA). The values of Pe were estimated according to the exact formulas provided by Corning and previously described in the literature.
4. Absorption – PAMPA permeability test
*Permeability coefficient. Compound is permeable if Pe≥1.5×10-6 cm/s
**CFN = caffeine, well-permeable control
UPLC of Caffeine solution in PBS (pH=7.4) after 5h of incubation: acceptor well
(above), donor well (below). IS – internal standard.
UPLC of PR 68 solution in PBS (pH=7.4) after 5h of incubation: acceptor well (above),
donor well (below). IS – internal standard. […]

T1 sequence (P08684 whole entry): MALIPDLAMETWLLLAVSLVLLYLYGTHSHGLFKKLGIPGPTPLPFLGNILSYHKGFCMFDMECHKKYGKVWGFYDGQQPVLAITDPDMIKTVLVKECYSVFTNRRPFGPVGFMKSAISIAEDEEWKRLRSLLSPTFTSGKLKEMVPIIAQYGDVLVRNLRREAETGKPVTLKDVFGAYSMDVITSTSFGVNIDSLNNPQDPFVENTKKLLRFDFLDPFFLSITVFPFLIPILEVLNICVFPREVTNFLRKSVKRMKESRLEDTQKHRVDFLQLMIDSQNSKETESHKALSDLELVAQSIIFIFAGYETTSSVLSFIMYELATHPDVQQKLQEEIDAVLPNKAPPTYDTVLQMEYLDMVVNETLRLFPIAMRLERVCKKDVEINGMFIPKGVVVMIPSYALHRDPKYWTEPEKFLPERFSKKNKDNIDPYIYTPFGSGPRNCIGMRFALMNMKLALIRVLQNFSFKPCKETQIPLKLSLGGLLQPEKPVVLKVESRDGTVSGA
T2 sequence (P10635 whole entry): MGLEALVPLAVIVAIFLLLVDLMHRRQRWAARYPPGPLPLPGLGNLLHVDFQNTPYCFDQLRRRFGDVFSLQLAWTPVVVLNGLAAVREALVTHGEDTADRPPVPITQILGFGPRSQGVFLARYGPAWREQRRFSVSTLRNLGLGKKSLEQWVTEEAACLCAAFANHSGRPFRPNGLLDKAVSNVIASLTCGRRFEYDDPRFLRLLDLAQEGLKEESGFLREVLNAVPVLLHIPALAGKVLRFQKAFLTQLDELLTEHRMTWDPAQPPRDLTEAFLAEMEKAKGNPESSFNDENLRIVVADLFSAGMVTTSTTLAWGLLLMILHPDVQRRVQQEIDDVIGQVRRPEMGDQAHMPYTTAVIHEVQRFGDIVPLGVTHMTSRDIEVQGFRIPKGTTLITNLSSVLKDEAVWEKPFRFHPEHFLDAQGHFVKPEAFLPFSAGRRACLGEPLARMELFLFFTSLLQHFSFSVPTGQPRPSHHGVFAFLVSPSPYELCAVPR

With `CC1NC(NS(=O)(=O)c2cccc3ccccc23)=Nc2cccc(Cl)c21` (stereo not shown) [PR 68, N -(5-chloro-4-methyl-3,4-dihydroquinazolin-2-yl)naphthalene-1-sulfonamide] the “drug–drug interactions, CYP3A4 activity” value [1] was “should not exhibit drug–drug interactions”, the Kd at 12 min, 20 µM [2] was 1.4 µM and the fraction unbound at 12 min, 20 µM [2] was 0.002. The “drug–drug interactions, CYP2D6 activity” value [3] was “should not exhibit drug–drug interactions”, the “membrane retention R” value ([4]; PAMPA) was 0.65 and the Papp at 5 h, 200 µM ([4]; PAMPA, PBS pH 7.4, 5 h, room temperature, read-out: PAMPA Pe) was 1.72 ×10⁻⁶ cm/s. For the same compound, the “PAMPA Pe” value ([4]; PBS pH 7.4, 5 h, room temperature) was 1.72 10^−6 cm/s.
